Data on four molecules can be found in ChEMBL document CHEMBL2146389, “Possible conformation of amphotericin B dimer in membrane-bound assembly as deduced from solid-state NMR” (Bioorg Med Chem, 2012).

Structures are written as SMILES.

One may read the EC50 as the concentration at which the effect is half-maximal. Low values mean higher potency in that assay, high ones lower potency in that assay.

Series [1] in a line: Binding affinity to ergosterol-containing palmitoyloleoylphosphatidylcholine membrane by UV spectra analysis. Format: physicochemical.
Series [2] relates to Aspergillus niger. In words: Antifungal activity against Aspergillus niger assessed as minimum compound concentration per disc required for inhibition zone formation after 50 hrs by disc diffusion assay. It is filed as functional. In general terms: In agar diffusion tests the substance spreads into inoculated agar from a disc or well.
Series [3] is described as follows: Hemolytic activity against human erythrocytes after 18 hrs by spectrophotometry. The conditions noted are these: Erythrocyte. Format: ADME, cell-based.
Series [4] in a line: Ratio of amphotericin B EC50 to compound EC50 for human erythrocytes. It is filed as ADME, cell-based, Erythrocyte. The note with it: read-out: Ratio EC50.
Series [5] can be described thus: Binding affinity to ergosterol-containing palmitoyloleoylphosphatidylcholine membrane at 0.84 uM by UV spectra analysis. It is filed as physicochemical.
The nature of series [6]: Binding affinity to ergosterol-containing palmitoyloleoylphosphatidylcholine membrane at 1.67 uM by UV spectra analysis. Format: physicochemical.

With `C[C@@H]1[C@H](O)[C@@H](C)/C=C/C=C/C=C/C=C/C=C/C=C/C=C/[C@H](O[C@@H]2O[C@H](C)[C@@H](O)[C@H](N)[C@@H]2O)C[C@@H]2O[C@](O)(C[C@@H](O)C[C@@H](O)[C@H](O)CC[C@@H](O)C[C@@H](O)CC(=O)O[C@H]1C)C[C@H](O)[C@H]2C(=O)O` [AMPHOTERICIN B], the Activity entry in series [1] was “Active”; in series [2], 10 µg. In addition, the EC50 in series [3] was 2 µM.
Turning to `C[C@@H]1[C@H](O)[C@@H](C)/C=C/C=C/C=C/C=C/C=C/C=C/C=C/[C@H](O[C@@H]2O[C@H](C)[C@@H](O)[C@H](NCCCNC(=O)CNC(=O)[C@@H]3[C@@H](O)[C@H](F)[C@@]4(O)C[C@@H](O)C[C@@H](O)[C@H](O)CC[C@@H](O)C[C@@H](O)CC(=O)O[C@@H](C)[C@H](C)[C@H](O)[C@@H](C)/C=C/C=C/C=C/C=C/C=C/C=C/C=C/[C@H](O[C@@H]5O[C@H](C)[C@@H](O)[C@H](N)[C@@H]5O)C[C@@H]3O4)[C@@H]2O)C[C@@H]2O[C@](O)(C[C@@H](O)C[C@@H](O)[C@H](O)CC[C@@H](O)C[C@@H](O)CC(=O)O[C@H]1C)C[C@H](O)[C@H]2C(=O)O[13CH3]`, the Activity in series [2] was 50 µg. In series [3], the EC50 was 13 µM. Further, the selectivity ratio in series [4] was determined as 6.
For the molecule `COC(=O)[C@H]1[C@@H]2C[C@@H](O[C@@H]3O[C@H](C)[C@@H](O)[C@H](NCCCNC(=O)CNC(=O)[C@H]4[C@@H]5C[C@@H](O[C@@H]6O[C@H](C)[C@@H](O)[C@H](N)[C@@H]6O)/C=C/C=C/C=C/C=C/C=C/C=C/C=C/[C@H](C)[C@@H](O)[C@@H](C)[C@H](C)OC(=O)C[C@H](O)C[C@H](O)CC[C@@H](O)[C@H](O)C[C@H](O)C[C@](O)(C[C@@H]4O)O5)[C@@H]3O)/C=C/C=C/C=C/C=C/C=C/C=C/C=C/[C@H](C)[C@@H](O)[C@@H](C)[C@H](C)OC(=O)C[C@H](O)C[C@H](O)CC[C@@H](O)[C@H](O)C[C@H](O)C[C@](O)(C[C@@H]1O)O2`, in series [5], the outcome was Active.
For the molecule `COC(=O)[C@H]1[C@@H]2C[C@@H](O[C@@H]3O[C@H](C)[C@@H](O)[C@H](N)[C@@H]3O)/C=C/C=C/C=C/C=C/C=C/C=C/C=C/[C@H](C)[C@@H](O)[C@@H](C)[C@H](C)OC(=O)C[C@H](O)C[C@H](O)CC[C@@H](O)[C@H](O)C[C@H](O)C[C@](O)(C[C@@H]1O)O2` [AMPHOTERICIN B ME ESTER], the outcome in series [6] was Active.
